Laboratory results reported in US20220323402A1, “TREATMENT, AMELIORATION OR PREVENTION OF A VIRAL INFECTION” (priority 2019, published 2022).

Key:
Cell cultures = assay: Cell viability by MTT assay; type: cell-based; settings: at the concentrations tested; FIGS. 9A-9B
Experimental: FIGS. 9A and 9B: Toxicity of I3S and CH223191. Cell viability after treatment for 24 h with different concentrations of I3S (FIG. 9A) and CH223191 (FIG. 9B) evaluated by MTT assay.
Cell cultures grown in 96-well plates were exposed for 48 h to serial two-fold compound dilutions, three wells for each concentration and viability was measured with 3-(4,5-dimethylthiazol-2-yl)-2,5-diphenyl tetrazolium bromide (MTT, Sigma-Aldrich).

AHR [1] = assay: AHR modulation in A549 cells, qPCR of AHR and CYP1A1; type: cell-based; settings: 24 h; FIG. 61
Experimental: FIGS. 61A and 61B: AHR modulation by small molecules in A549 cells. A549 cells were treated with the indicated concentrations of I3S (FIG. 61A) or CH223191 (FIG. 61B) for 24 h. Then, cells were harvested for RNA extraction and qPCR analysis of AHR and CYP1A1.

AHR [2] = assay: AHR modulation in NPCs, qPCR of AHR, CYP1A1, IDO1 and TDO2; type: cell-based, human; settings: at the concentrations tested; NPCs 24 h; FIGS. 10A-10D
Experimental: FIGS. 10A-10D: AHR modulation in NPCs. NPCs were treated with I3S or a combination of I3S and CH223191. 24 h after treatment, NPCs were harvested for RNA extraction followed by qPCR analysis of AHR (FIG. 10A), CYP1A1 (FIG. 10B), IDO1 (FIG. 100) and TDO2 (FIG. 10D). Data represent the mean+s.e.m. from three independent experiments. P values were determined by Student's t-test.
RNA was extracted using the RNAeasy kit (Qiagen). cDNA was synthesized using the High-Capacity cDNA Reverse Transcription kit (Applied Biosystems) and qPCR was performed using TaqMan Fast Advanced Master Mix (Applied Biosystems). Gene expression was normalized to GAPDH. Primers and probes (Applied Biosystems) were: GAPDH Hs02786624_g1, IFNB1 Hs01077958_s1, AHR Hs00169233_m1, PML Hs00971694_m1, CYP1A1 Hs01054796_g1, IFITM1 Hs00705137_s1, CYP1B1 Hs02382916_s1, CXCL10 Hs00171042_m1, IDO1 Hs00984148_m1, IDO2 Hs01589373_m1, IFITM Hs00705137_s1, TDO Hs00194611_m1. Primers and probes for the specific detection of Zika virus RNA were utilized as previously described^81, 82. For viral load determination in vivo, brains and spleens from pups were macerated on trizol (Invitrogen) for RNA extraction. RNA pellets were resuspended in RNase-free water and quantified by spectrophotometry (NanoDrop—Thermo Scientific) and stored at −80° C. […] Quantification was compared with threshold cycle (Ct) value with a ZIKV plasmid standard curve.

[3] = test system: DENV-1, DENV-2, DENV-3, DENV-4; assay: DENV plaque assay of supernatants of A549 cells; type: cell-based, dengue virus; settings: A549 pretreated 24 h, moi=0.1; FIG. 62
Experimental: FIG. 62: AHR activation boosts DENV replication. A549 cells were pretreated with the indicated concentrations of I3S for 24 h and infected with DENV-2 (moi=0.1). 48 h p.i. supernatants were harvested for plaque assay.
FIGS. 63A-63D: AHR modulation affects DENV replication. Infectious virus particles in the supernatants of A549 cells pre-treated with CH2213191 and infected with DENV-1 (FIG. 63A), DENV-2 (FIG. 63B), DENV-3 (FIG. 63C) or DENV-4 (FIG. 63D) (moi=0.1). At 24 h p.i. supernatants were harvested for plaque assay.

[4] = test system: ZIKV (Puerto Rico strain, PRVABC59); assay: Flow cytometry quantification of HepG2 cells positive for Flavivirus antigen after ZIKV infection; type: cell-based, Zika virus; settings: HepG2, ZIKV moi=1, 48 h; FIG. 7C
Experimental: FIGS. 7A-7K: AHR signaling boosts ZIKV replication in vitro. Flow cytometry quantification of HepG2 cells positive for Flavivirus antigen. HepG2 cells were pre-treated with different concentrations of I3S, CH223191 or DMSO (vehicle) and infected with ZIKV (moi=1) for 48 h. Plots shown are representative of one experiment. Bar graphs (FIG. 7C) represent the mean+s.e.m. of Flavivirus antigen positive cells from at least three independent experiments. P values were determined by a one-way ANOVA followed by Tukey's post-hoc test.
Stock solutions of I3S and CH223191 were prepared in DMSO, aliquoted and stored according to manufacturer's instructions. For CH223191, cells were pre-treated for 90 minutes and then used for further studies. For I3S, cells were pre-treated overnight.
Cells were fixed and permeabilized using Cytofix/Cytoperm (BD Biosciences). Secondary antibody for flow cytometry was phycoerythrin (PE) goat anti-mouse IgG (BD Biosciences) at a concentration of 1:200. Cells were analyzed on a Guava easyCyte flow cytometer and data was processed using FlowJo software.

ZIKV = assay: Effect of inhibitors of IFN signaling on ZIKV replication in HepG2 cells, plaque assay; type: cell-based, Zika virus; settings: HepG2 pre-treated 24 h, plaque assay 24 h p.i.; FIG. 22
Experimental: HepG2 cells were pre-treated with DMSO (vehicle), JAK I Inhibitor, TSA, or NaF for 24 h and infected with ZIKV. Data represent the mean+s.e.m. from three independent experiments. P values were determined by a one-way ANOVA followed by Tukey's post-hoc test.
I3S (Indoxyl 3-sulfate, Sigma, used at 50-500 μM as indicated for each experiment), CH223191 (Tocris, used at 2-30 μM), Sodium fluoride (Sigma, 1 mM), Trichostatin A (Sigma, 100 nM), JAK I Inhibitor (Santa Cruz Biotechnology, 1 μM). HP163 was the generous gift of Hercules Pharmaceuticals, BV, (Galileiweg 8, 2333 BD, The Netherlands). CB7993113 has been described previously^80. HP163, is a monoalkylated amide of CB7993113 optimally formulated in a 5% tween, 45% PEG, 50% saline mixture. […] The structural formulas of the compounds used in this study are reproduced below.

## O=S(=O)(O)Oc1c[nH]c2ccccc12 [I3S, Indoxyl 3-sulfate]
Cell cultures
  cytotoxic effects: no cytotoxic effects were detected
AHR [1]
  AHR activation in A549 cells: activated
AHR [2]
  AHR inhibition / activation: activation
[3]
  yield of the four DENV serotypes: increased
[4]
  percentage of HepG2 cells expressing viral antigen: increased

## [F-].[Na+] [NaF, Sodium fluoride]
ZIKV
  ZIKV replication in presence of drugs that block IFN-I signaling: increase

## CC(/C=C/C(=O)NO)=C\[C@@H](C)C(=O)c1ccc(N(C)C)cc1 [trichostatin A]
ZIKV
  ZIKV replication in presence of drugs that block IFN-I signaling: increase

## JAK inhibitor I
ZIKV
  ZIKV replication in presence of drugs that block IFN-I signaling: increase
